Source: patent publication US20210038559A1, “CANNABINOIDS AND DERIVATIVES FOR PROMOTING IMMUNOGENICITY OF TUMOR AND INFECTED CELLS” (priority 2018, published 2021)
pEC50: −log10 of the molar value.

Experiments:
[1] = tested on: MHC-I expression on COLO 205 cells; assay: Phytocannabinoid MHC-I induction on COLO 205 cells, 0-100 μM, 48 hours; settings: for pEC50: Homo sapiens, COLO 205, 48 h; for Fold Induction: MHC-I expression on COLO 205 cells, 0-100 μM, 48 hours, relative to control cells treated only with buffer
Description: FIG. 4. Cell surface MHC class I expression was measured by flow cytometry (MFI).
Phytocannabinoids were tested for MHC-I-inducing activity on COLO 205 cells. Each cannabinoid was tested at a concentration range of 0-100 μM. […] “ND” indicates not determined.

[2] = tested on: MHC class I expression on COLO 205 cells; assay: MHC class I expression on COLO 205 cells, 24 hours, flow cytometry (W6/32); settings: for fold induction at 10 µM / fold induction at 20 µM / fold induction at 30 µM / fold induction at 40 µM: Homo sapiens, COLO 205
Description: FIG. 2A-2F. […] Cells were treated for 24 hours and cell surface MHC class I expression was measured by flow cytometry.
Cannabigerol was also tested for its capacity to induce MHC class I expression in a human colorectal carcinoma cell line, COLO 205. The cells were treated with either 25 μM or 50 μM cannabigerol for 24 hours. Fluorophor (Alexa Fluor 488)-conjugated W6/32 antibody (Thermo Fisher) was used in a flow cytometry assay to quantitate MHC class I expression. […] Cannabigerol is only one of many cannabinoid-like molecules with potential biopharmaceutical activity. […] COLO 205 cells were treated with up to 40 μM of the cannabinoids 1-5 presented in Tables 1 and 2 and evaluated for cell surface MHC class I expression as described above for cannabigerol.

[3] = tested on: MHC-I expression, COLO 205 cells; assay: Time course of MHC-I expression in CBD-treated COLO 205 cells; type: cell-based, human; settings: COLO 205, 15 μM
Description: FIG. 5. MHC-I expression (MFI) is induced over time in CBD-treated COLO 205 cells.
To determine whether changes in gene expression play a role in cannabinoid-induced MHC-I expression, COLO 205 cells were incubated with 15 μM CBD and cells were harvested at 6, 12, 24, and 48 hours for determination of MHC-I expression by flow cytometry.

[4] = tested on: MHC class I expression, mouse Lewis lung carcinoma cell line A9; assay: MHC class I expression in mouse A9 Lewis lung carcinoma cells, 24 hours, flow cytometry; type: cell-based; settings: 100 ng/ml, positive control
Description: FIG. 1A-1B. Cannabigerol stimulates MHC class I expression in the mouse A9 Lewis lung carcinoma (FIG. 1A) and the human COLO 205 colorectal carcinoma (FIG. 1B) cell lines. Cells were treated for 24 hours with 21.2 μM (A) or 25 and 50 μM (FIG. 1B) cannabigerol.
Cannabigerol, a representative cannabinoid, was tested for its ability to also stimulate MHC class I expression in mammalian cancer cell lines. The mouse Lewis lung carcinoma cell line, A9, was treated with 21 μM of cannabigerol for 24 hours prior to flow cytometric analysis of cell surface expression of MHC class I expression levels using the MHC class I antibody W6/32 (Thermo Fisher). Control conditions included the vehicle, dimethyl sulfoxide (DMSO, 1%) alone, and 100 ng/ml of trichostatin A (TSA), a histone deacetylase inhibitor and known inducer of MHC class I expression in mammalian cells. […] The positive control, TSA, stimulated expression by 2.4-fold.

[5] = tested on: MHC-I expression, human cancer cell lines; assay: MHC-I expression restoration by IFN-γ in human cancer cell lines; type: cell-based; settings: 48 hours
Description: (§1) FIG. 3A-3B. […] MHC-I downregulation is reversible in the majority of human and mouse cancer cell lines.
(§2) MHC-I expression may be restored in cancers, such as those with intact antigen processing machinery (APM) genes. Various human and mouse cancer cell lines were treated with dose titrations of recombinant human and mouse IFN-γ, respectively. The cells were incubated with IFN-γ for 48 hours in a humidified chamber at 37° C., stained with fluorescent haplotype-appropriate MHC-I antibody, then signal was determined by flow cytometry. Cancers represented in this experiment include brain (SK-N-MC), breast (4T1, EMT6), colorectal (COLO 205, SNU-C1, DLD-1, LS123, LS411N, LoVo, CT26, MC38), kidney (Renca), lung (NCI-H146, LLC), lymphoid (A20), and skin (A431, SK-MEL-2, B16F10). IFN-γ induced MHC-I expression in a dose-dependent manner in 6/10 (60%) human and 6/9 mouse (67%) cell lines. […] The results are found in FIGS. 3A-3B.

[6] = tested on: MHC-I expression, mouse cancer cell lines; assay: MHC-I expression restoration by IFN-γ in mouse cancer cell lines; type: cell-based; settings: 48 hours
Description: as §1, §2

[7] = COLO 205, 10 μM, W6/32 staining
[8] = COLO 205, 20 μM, W6/32 staining
[9] = COLO 205, 30 μM, W6/32 staining
[10] = COLO 205, 40 μM, W6/32 staining

| Compound | pEC50 [1] | Fold Induction [1] [Fold] | MFI [2, 7] | MFI [2, 8] | MFI [2, 9] | MFI [2, 10] | fold induction at 10 µM [2] | fold induction at 20 µM [2] | fold induction at 30 µM [2] | fold induction at 40 µM [2] | other results |
| --- | --- | --- | --- | --- | --- | --- | --- | --- | --- | --- | --- |
| C=C(C)[C@@H]1CCC(C)=CC1c1c(O)cc(CCCCC)cc1O (stereo partly drawn) [Example 2, 2-[1R-3-methyl-6R-(1-methylethenyl)-2-cyclohexen-1-yl]-5-pentyl-1,3-benzenediol] | 5.00 | 2.8 | 141 | 205 | 199 | 82 | 1.17 | 1.69 | 1.64 | 0.68 | MHC-I expression ([3]; 48 hr): robust induction; MHC-I expression ([3]; by 24 hours): slight increase |
| CCCCCc1cc(O)c2c(c1)OC(C)(CCC=C(C)C)C=C2 (stereo not shown) [Example 3, 2-methyl-2-(4-methyl-3-penten-1-yl)-7-pentyl-2H-1-benzopyran-5-ol] | 4.70 | 1.6 | 120 | 148 | 177 | 280 | 0.99 | 1.22 | 1.46 | 2.31 | – |
| CCCCCc1cc(O)c2c(c1)OC(C)(C)c1ccc(C)cc1-2 [Example 4, 6,6,9-trimethyl-3-pentyl-6H-dibenzo[b,d]pyran-1-ol] | 4.60 | 1.8 | 120 | 160 | 253 | 253 | 0.99 | 1.32 | 2.09 | 2.09 | – |
| CCCc1cc(O)c2c(c1)OC(C)(C)[C@@H]1CCC(C)=C[C@@H]21 [Example 5, 6aR,7,8,10aR-tetrahydro-6,6,9-trimethyl-3-propyl-6H-dibenzo[b,d]pyran-1-ol] | 4.82 | 3.0 | 152 | 192 | 235 | 242 | 1.26 | 1.59 | 1.94 | 2 | – |
| CC(/C=C/C(=O)NO)=C\[C@@H](C)C(=O)c1ccc(N(C)C)cc1 [TSA, trichostatin A, reference compound] | – | – | – | – | – | – | – | – | – | – | increase in MHC class I expression [4]: 2.4 fold |
| Interferon-γ: a natural cytokine known to stimulate MHC class I expression in many mammalian cells | – | – | – | – | – | – | – | – | – | – | MFI ([2]; COLO 205, 0.004 ng/mL): 119; MFI ([2]; COLO 205, 0.012 ng/mL): 193; MFI ([2]; COLO 205, 0.040 ng/mL): 250; MFI ([2]; COLO 205, 0.110 ng/mL): 321; MFI ([2]; COLO 205, 1.000 ng/mL): 483; MFI ([2]; COLO 205, 3.000 ng/mL): 482; increase in MHC class I expression (maximum) ([2]; COLO 205, interferon-γ reference): ≤ 4 fold; cell lines with dose-dependent induction of MHC-I expression [5]: 6/10; cell lines with dose-dependent induction of MHC-I expression [6]: 6/9 |
